Experimental data published in patent US20250186436A1 (4E Therapeutics, Inc., priority 2021, published 2025).
Values joined by “and” are separate entries in the source; they are usually repeats but may differ in a detail not shown here. Equal values may be shown once. Read-outs that look alike come from different tables or passages of the source.

Assays:
[1] = biological target: T1, recombinant full-length human kinase MNK1 (Homo sapiens, UniProt Q9BUB5); test: MNK1 radiometric kinase activity assay; format: biochemical; conditions: radiometric activity assay; read-out: MNK1
T1 construct: the recombinant full-length human kinase MNK1; made in house; host or cells: insect cells
T1 sequence (Q9BUB5 whole entry): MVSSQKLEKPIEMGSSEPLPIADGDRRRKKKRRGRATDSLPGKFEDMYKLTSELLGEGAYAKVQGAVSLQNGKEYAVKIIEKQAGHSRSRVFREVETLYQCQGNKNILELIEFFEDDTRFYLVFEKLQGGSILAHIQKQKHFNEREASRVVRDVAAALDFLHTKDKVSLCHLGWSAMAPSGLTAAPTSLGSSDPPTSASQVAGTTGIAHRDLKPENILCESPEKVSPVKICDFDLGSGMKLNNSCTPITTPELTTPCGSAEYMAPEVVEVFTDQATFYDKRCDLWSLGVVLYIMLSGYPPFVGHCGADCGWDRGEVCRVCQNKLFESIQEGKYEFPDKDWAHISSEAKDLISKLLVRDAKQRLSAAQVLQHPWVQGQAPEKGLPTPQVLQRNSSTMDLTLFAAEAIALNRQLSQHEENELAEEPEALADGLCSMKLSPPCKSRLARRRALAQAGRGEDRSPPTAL

[2] = Plasma and brain concentrations, brain:plasma ratio in rats 2 hr after single PO 1 mg/kg (Example 5); format: in vivo; conditions: for concentration at 2 hr: po
Protocol: Table 15 provides plasma and brain concentrations at 2 hr after a single P0 dose of 1 mg/kg.

[3] = Plasma and brain concentrations, brain:plasma ratio 24 hr after last of five daily 1 mg/kg PO doses (Example 6); format: in vivo, rats; conditions: for concentration at 24 h / Kp at 24 h: rat; for concentration at 24 h: oral, 1 mg/kg
Description: Table 18 provides plasma and brain concentrations of 4ET-03-0053 at 24 hr after the last dose of five daily P0 doses.

[4] = PK study in male Sprague-Dawley rats dosed once per day for five days, PO 10 mg/kg, 0.5% HPMC (Example 7); format: in vivo; conditions: 0.5% HPMC suspension
Protocol: Example 7. PK study of 4ET-03-053 in male Sprague-Dawley rats dosed once per day for five days (P0; 10 mg/kg; 0.5%0HPMC aqueous suspension)
Table 21 provides plasma and brain concentrations at 24 hr after the last dose of five daily P0 doses of 4ET-03-053.

[5] = Sprague-Dawley rats, day five of daily PO 10 mg/kg, individual animals, 10 mg/kg
[6] = Sprague-Dawley rats, day five of daily PO 10 mg/kg, mean (n = 3)
[7] = male Sprague-Dawley rats, single PO 10 mg/kg dose, individual animals, 10 mg/kg
[8] = male Sprague-Dawley rats, single PO 10 mg/kg dose, mean (n = 3)
[9] = male, Sprague-Dawley, rat, in vivo, po, 10 mg/kg, Sprague-Dawley rats, day five of daily PO 10 mg/kg, individual animals

Q: Which IC50 [1] does the source give for `Cc1cc(Nc2cc(N)ncn2)c(=O)n2c1C(=O)NC21CCC2(CC2)CC1` [4ET-03-053, 6″-((6-Aminopyrimidin-4-yl)amino)-8″-methyl-2″H-dispiro[cyclopropane-1,1′-cyclohexane-4′,3″-imidazo[1,5-a]pyridine]-1″,5″-dione] here?
A: 215 nM

Q: What about the concentration at 2 hr ([2]; male, Sprague-Dawley, rat, brain homogenate, 1 mg/kg, rats, brain homogenate, 2 hr after single PO 1 mg/kg, individual animals (n = 3), read-out: Tissue Homogenate Conc.) of the same compound?
A: 9.82 ng/mL

Q: What about the concentration at 2 hr ([2]; male, Sprague-Dawley, rat, brain homogenate, 1 mg/kg, rats, brain homogenate, 2 hr after single PO 1 mg/kg, mean, read-out: Tissue Homogenate Conc., Mean) of the same compound?
A: 11.8 ng/mL

Q: What about the concentration at 2 hr ([2]; male, Sprague-Dawley, rat, brain, 1 mg/kg, rats, brain, 2 hr after single PO 1 mg/kg, read-out: Mean Tissue) of the same compound?
A: 47.2 ng/g

Q: And the concentration at 2 hr ([2]; male, Sprague-Dawley, rat, plasma, 1 mg/kg, rats, plasma, 2 hr after single PO 1 mg/kg, individual animals (n = 3), read-out: Plasma Conc.)?
A: 506 ng/mL

Q: What about the concentration at 2 hr ([2]; male, Sprague-Dawley, rat, plasma, 1 mg/kg, rats, plasma, 2 hr after single PO 1 mg/kg, mean, read-out: Plasma Conc., Mean) of the same compound?
A: 566 ng/mL

Q: And the Kp at 2 hr ([2]; male, Sprague-Dawley, rat, rats, brain to plasma, 2 hr after single PO 1 mg/kg, read-out: Mean Tissue/Plasma Conc. Ratio)?
A: 0.083

Q: What about the Kp at 2 h ([2]; rat, brain, Sprague-Dawley rats, 2 hr after a single PO dose of 1 mg/kg) of the same compound?
A: 0.083

Q: What about the “Tissue Homogenate Conc.” value ([2]; rats, brain homogenate, 2 hr after single PO 1 mg/kg, individual animals (n = 3), 1 mg/kg) of the same compound?
A: 11.4 ng/mL and 14.2 ng/mL

Q: What about the “Plasma Conc.” value ([2]; rats, plasma, 2 hr after single PO 1 mg/kg, individual animals (n = 3), 1 mg/kg) of the same compound?
A: 539 ng/mL and 652 ng/mL

Q: And the concentration at 24 h ([3]; male, Sprague-Dawley, brain homogenate, rats, brain homogenate, 24 hr after the last 1 mg/kg PO dose on day 5, individual animals (n = 3), read-out: Tissue Homogenate Conc.)?
A: 7.22 ng/mL

Q: What about the concentration at 24 h ([3]; male, Sprague-Dawley, brain homogenate, rats, brain homogenate, 24 hr after the last 1 mg/kg PO dose on day 5, mean, read-out: Tissue Homogenate Conc., Mean) of the same compound?
A: 6.02 ng/mL

Q: What about the concentration at 24 h ([3]; male, Sprague-Dawley, brain, rats, brain, 24 hr after the last 1 mg/kg PO dose on day 5, read-out: Mean Tissue) of the same compound?
A: 24.1 ng/g

Q: What about the concentration at 24 h ([3]; male, Sprague-Dawley, plasma, rats, plasma, 24 hr after the last 1 mg/kg PO dose on day 5, individual animals (n = 3), read-out: Plasma Conc.) of the same compound?
A: 318 ng/mL

Q: And the concentration at 24 h ([3]; male, Sprague-Dawley, plasma, rats, plasma, 24 hr after the last 1 mg/kg PO dose on day 5, mean, read-out: Plasma Conc., Mean)?
A: 278 ng/mL

Q: And the Kp at 24 h ([3]; male, Sprague-Dawley, rats, brain to plasma, 24 hr after the last 1 mg/kg PO dose on day 5, read-out: Mean Tissue/Plasma Conc. Ratio)?
A: 0.086

Q: And the Kp at 24 h ([3]; brain, Sprague-Dawley rats, 24 hr after the last dose of five daily PO doses of 1 mg/kg, read-out: brain:plasma ratio)?
A: 0.086

Q: And the “Tissue Homogenate Conc.” value ([3]; rats, brain homogenate, 24 hr after the last 1 mg/kg PO dose on day 5, individual animals (n = 3))?
A: 5.79 ng/mL and 5.04 ng/mL

Q: What about the “Plasma Conc.” value ([3]; rats, plasma, 24 hr after the last 1 mg/kg PO dose on day 5, individual animals (n = 3)) of the same compound?
A: 291 ng/mL and 226 ng/mL

Q: What about the AUCinf [4, 5] of the same compound?
A: 318.204 µg·h/mL and 347.92 µg·h/mL

Q: What about the AUCinf/D [4, 5] of the same compound?
A: 25862 kg·h/kL and 31820 kg·h/kL and 34792 kg·h/kL

Q: And the AUClast [4, 5]?
A: 291.659 µg·h/mL and 320.41 µg·h/mL

Q: What about the Clast [4, 5] of the same compound?
A: 2390 ng/mL and 2740 ng/mL

Q: What about the Cmax [4, 5] of the same compound?
A: 18800 ng/mL

Q: What about the Cmax/D [4, 5] of the same compound?
A: 2460 kg/kL and 1880 kg/kL and 2510 kg/kL

Q: And the F [4, 5]?
A: 50.2% and 61.8% and 67.6%

Q: What about the MRTinf [4, 5] of the same compound?
A: 9.17 h and 9.18 h

Q: And the t1/2 [4, 5]?
A: 7.19 h and 6.73 h

Q: What about the AUCinf/D [4, 6] of the same compound?
A: 30825 kg·h/kL

Q: And the Cmax/D [4, 6]?
A: 2283 kg/kL

Q: What about the F [4, 6] of the same compound?
A: 59.9%

Q: What about the “time to peak plasma concentration” value ([4]; Sprague-Dawley rats, following five daily PO doses of 10 mg/kg) of the same compound?
A: ≤ 2 h

Q: What about the AUCinf [4, 7] of the same compound?
A: 308.776 µg·h/mL and 251.304 µg·h/mL

Q: And the AUCinf/D [4, 7]?
A: 25525 kg·h/kL and 30878 kg·h/kL and 25130 kg·h/kL

Q: And the AUClast [4, 7]?
A: 296.855 µg·h/mL and 240.643 µg·h/mL

Q: And the Clast [4, 7]?
A: 1120 ng/mL and 1560 ng/mL

Q: What about the Cmax [4, 7] of the same compound?
A: 19900 ng/mL and 21800 ng/mL

Q: What about the Cmax/D [4, 7] of the same compound?
A: 2510 kg/kL and 1990 kg/kL and 2180 kg/kL

Q: What about the F [4, 7] of the same compound?
A: 49.6% and 60.0% and 48.8%

Q: And the MRTinf [4, 7]?
A: 7.59 h and 7.51 h

Q: What about the AUCinf/D [4, 8] of the same compound?
A: 27178 kg·h/kL

Q: And the Cmax/D [4, 8]?
A: 2227 kg/kL

Q: And the F [4, 8]?
A: 52.8%

Q: What about the AUC(0-t) [4, 9] of the same compound?
A: 234 µg·h/mL

Q: And the MRT inf [4, 9]?
A: 9.79 h
